From patent publication US4931553A, “Platinum-polymer complexes and their use as antitumor agents” (priority 1988, dated 1990)

Experiments:
[1] = Aqueous solubility of polymeric platinum prodrugs; type: physicochemical; details: for Solubility at RT: room temperature; for Aqueous solubility / Appearance: Table I; for Appearance: appearance of the aqueous solution; for Solubility of the complex: temperature not stated
Source text: Three polyacrylic acid polymers of weight average molecular weight 2000, 5000, 15,000 were used as ligands for complexation with Pt(DACH)(NO3)2 to determine the effect of molecular weight on the physical properties and antitumor properties of the complexes. […] In addition to polyacrylic acids, polymethacrylic acid of 15,000 weight average molecular weight and isotactic and syndiotactic polymethacrylic acid polymers of about 5000 Mw were used as ligands. The polyacrylates were complexed with Pt(DACH)(NO3)2 in aqueous solution at pH 4-6.

[2] = Aqueous solubility of polymeric platinum prodrugs; type: physicochemical; details: Table I; for Appearance: appearance of the aqueous solution
CA - 755 Adenocarcinoma = assay: Inhibition of tumor weight, CA-755 Adenocarcinoma implanted subcutaneously; type: in vivo, mice; details: day 30
Method: (§1) In addition to the L1210 tumor line, Pt(trans-DACH)carboxyamylose (Pt:Polymer=1:6) was screened against additional murine tumor models. In these experiments, tumor of a known weight was implanted subcutaneously to the mice. The mice were then treated with the compound on day 1, 5, 9 schedule. On day 30, the tumors were reweighed and the results are expressed as percent inhibition of tumor weight.

Lewis Lung = assay: Inhibition of tumor weight, Lewis Lung implanted subcutaneously; type: in vivo, mice; details: day 30
Method: as §1

L1210 murine tumor = L1210 murine tumor model in BDF1 mice (T/C% and cures); type: in vivo
Method: Some of the specific compounds of the examples above were tested by NCI against L1210 murine tumor model in BDF1 mice. The tumored mice were injected ip with solutions of compounds on days 1, 5, and 9 after the cell innoculum. The results of the experiments were evaluated on day 30 and are expressed as the quotient of the median survival time in days of test animals divided by median day of death of the untreated control mice, multiplied by 100 (T/C%). Mice with no sign of tumor on day 30 are considered as cured.
T/C = Ratio of test evaluation to control evaluation expressed as
percentage. More precisely, T/C = Median survival time of test animals
× 100 (Median survival time of control).

[3] = tested on: x5563 Plasma Cell Myeloma; assay: Inhibition of tumor weight, x5563 Plasma Cell Myeloma implanted subcutaneously; type: in vivo, mice; details: day 30
Method: as §1

M5 ovarian Carcinoma = assay: Inhibition of tumor weight, M5 ovarian Carcinoma implanted subcutaneously; type: in vivo, mice; details: day 30
Method: as §1

animal tumors = details: in vivo; cited from earlier work
malignancies in humans = details: in vivo; cited from earlier work
[4] = cited from earlier work
[5] = tested on: tumors responsive to cisplatin and/or DACH-Pt and bisplatinum complex therapy; assay: Anti-tumor activity (statement for the pyran copolymer complex); details: in vivo
[6] = Table 2, 10 mg/kg, ip days 1, 5, 9, day 30
[7] = Table 2, 10 mg/kg, ip days 1, 5, 9, no sign of tumor on day 30
[8] = Table 2, 20 mg/kg, ip days 1, 5, 9, day 30
[9] = Table 2, 20 mg/kg, ip days 1, 5, 9, no sign of tumor on day 30

Pt(trans-DACH)Carboxy Polygalacturonic Acid [Example 14]
Solubility in aqueous solution (in words) ([1]; aqueous solution): Insoluble in aqueous solution

Pt(trans-DACH)Carboxy Dextran (11.700 Mw)
Aqueous solubility [2]; 6: 100 mg/mL
Appearance [2]; 6: clear

Pt(trans-DACH)Carboxy Dextran Sulfate (6,000 Mw) [Example 11]
Solubility at RT [1]: 50 mg/mL

Pt(trans-DACH)Carboxy Dextran (40,000 Mw) [Example 18]
Aqueous solubility [1]: 730 mg/mL
Appearance [1]: clear
Solubility of the complex [1]: greater than 30 mg per ml

Pt(trans-DACH)Carboxy Dextran (21,200 Mw) [Example 9]
Solubility at RT [1]: 100 mg/mL

Pt(trans-DACH)Carboxyamylose (176,000 Mw) [Example 16]
Aqueous solubility [1]: 725 mg/mL
Appearance [1]: clear
Solubility of the complex on slight warming ([1]; on slight warming): greater than 25 mg per ml

Pt(trans-DACH)CO oxyalginic Acid (75.000 Mw) [Example 15]
Solubility in 10% sodium bicarbonate solution ([1]; 10% sodium bicarbonate, 40° C.): 25 mg/mL

Pt(trans-DACH)Carboxy Dextran (11.700 Mw) [Example 8]
Solubility at 50° C. [1]: 25 mg/mL
Aqueous solubility [2]; 2: 25 mg/mL
Appearance [2]; 2: cloudy

Pt(trans-DACH)Carboxy Amylose (176.000 Mw) [Example 5]
Aqueous solubility [1]: 10 mg/mL
Appearance [1]: clear
% Inh. of tumor weight (CA - 755 Adenocarcinoma; dose 5, days 1, 5, 9): 69%
% Inh. of tumor weight (CA - 755 Adenocarcinoma; dose 10, days 1, 5, 9): 81%
% Inh. of tumor weight (CA - 755 Adenocarcinoma; dose 20, days 1, 5, 9): 94%
% Inh. of tumor weight (Lewis Lung; dose 1.25, days 1, 5, 9): 20%
% Inh. of tumor weight (Lewis Lung; dose 2.5, days 1, 5, 9): 37%
% Inh. of tumor weight (Lewis Lung; dose 5, days 1, 5, 9): 34%
T/C (L1210 murine tumor; [6]): 269%
Cures (L1210 murine tumor; [7]): 1/6
T/C (L1210 murine tumor; [8]): 269%
Cures (L1210 murine tumor; [9]): 2/6
T/C (L1210 murine tumor; Table 2, 40 mg/kg, ip days 1, 5, 9, day 30): 292%
Cures (L1210 murine tumor; Table 2, 40 mg/kg, ip days 1, 5, 9, no sign of tumor on day 30): 2/6
% Inh. of tumor weight ([3]; dose 5, days 1, 5, 9): 100%
% Inh. of tumor weight ([3]; dose 10, days 1, 5, 9): 100%
% Inh. of tumor weight ([3]; dose 20, days 1, 5, 9): 100%
% Inh. of tumor weight (M5 ovarian Carcinoma; dose 5, days 1, 5, 9): 64%
% Inh. of tumor weight (M5 ovarian Carcinoma; dose 10, days 1, 5, 9): 86%
% Inh. of tumor weight (M5 ovarian Carcinoma; dose 20, days 1, 5, 9): 99%

Pt(trans-DACH)Carboxy Amylopectin (176.000 Mw) [Example 7]
Aqueous solubility [1]: 25 mg/mL
Appearance [1]: clear
T/C (L1210 murine tumor; [6]): 337%
Cures (L1210 murine tumor; [7]): 4/6
T/C (L1210 murine tumor; [8]): 314%
Cures (L1210 murine tumor; [9]): 2/6
Cures (L1210 murine tumor; Table 3, 10 mg/kg): 4/6
T/C (L1210 murine tumor; Table 3, 10 mg/kg): 337
Cures (L1210 murine tumor; Table 3, 20 mg/kg): 2/6
T/C (L1210 murine tumor; Table 3, 20 mg/kg): 314

Pt(trans-DACH)polyacrylate (2000 Mw) [Example 1]
Solubility in water (in words) ([1]; water): very soluble in water

Pt(trans-DACH)Carboxy Amylose (50% degree of Oxidation) [Example 13]
Solubility at 50° C. [1]: 25 mg/mL

Pt(trans-DACH)Carboxy Amylopectin (176.000 Mw) [Example 7 (freeze-dried)]
Solubility at 50° C. [1]: 25 mg/mL

cis-[Pt(NH3)2 Cl2 ] [cisplatin]
Effectiveness against animal tumors (in words) (animal tumors): effective against several types of animal tumors
Use in human malignancies (in words) (malignancies in humans): used successfully in treating certain types of malignancies in humans
Water solubility ([4]; in water): about 1 mg/ml
T/C (L1210 murine tumor; Table 3, 5 mg/kg): 175 ± 5

Pt(trans-DACH)Carboxy Amylose (4,800 Mw) [Example 6]
Solubility at 50° C. [1]: 20 mg/mL

(trans-DACH) Pyran Copolymer Complex [Example 19]
Anti-tumor activity (in words) [5]: exhibits anti-tumor activity

Pt(trans-DACH)Carboxy Dextran, 11,700 Mw (58% Degree of Oxidation) [Example 12]
Solubility at RT [1]: 100 mg/mL

DACH-Pt(OH2)Cl2 (IV)
Solubility of platinum-amine complexes (at most sparingly soluble) ([4]; at most sparingly soluble): < 1 mg/mL

Pt(trans-DACH)Polyacrylate (5000 Mw) [Example 2]
Solubility in water (in words) ([1]; water): very soluble in water

Pt(trans DACH)Carboxy amylopectin (176,000 Mw) [Example 17]
Aqueous solubility [1]: 725 mg/mL
Appearance [1]: clear
Solubility of the complex [1]: greater than 25 mg per ml
T/C (L1210 murine tumor; [6]): 357%
Cures (L1210 murine tumor; [7]): 3/6
T/C (L1210 murine tumor; [8]): 261%
Cures (L1210 murine tumor; [9]): 1/6

Pt(trans-DACH)Carboxy Dextran (47,000 Mw) [Example 10]
Solubility in water at room temperature and up to 50° C. (in words) ([1]; water, room temperature and up to 50° C.): insoluble in water at room temperature and up to 50 °C
